Source: patent publication US10556914B2, “Substituted isoxazolopyridazinones and isothiazolopyridazinones and methods of use” (AbbVie Inc., priority 2015, dated 2020)

What follows are molecules tested against GABA-B receptor (Rattus norvegicus (Rat), UniProt O88871+Q9Z0U4) (assay: [35S]GTPgS Binding Assay (rat brain cortex membranes, native receptor)). Details: rat cortical membranes; in the presence of 1 μM GABA (EC25); basal binding 0%, maximal binding (1 mM GABA) 100%.
Type: biochemical
Procedure: Preparation of Rat Brain Membranes for Native Receptor Assays
Membranes from rat brain cortex were prepared as described in detail by Olpe et al. and stored at concentrations of 1.66 mg/mL protein at −80° C. until required. (Olpe, H.-R, et al. Eur J Pharmacol 1990; 187: 27-38).
[^35S]GTPgS Binding Assay
The samples were incubated at room temperature for 60 minutes on a shaker. The incubation was stopped by rapid vacuum filtration over glass-fiber filter plates (UniFilter-96 well, GF/B membrane plates, PerkinElmer) using a 96-well plate harvester (TOMTEK© Harvester). The UniFilter plate was washed five times with ice-cold wash buffer (50 mM Tris-HCl buffer, pH 7.7, 10 mM MgCl2, and 100 mM NaCl. After filtration the plate was dried for 90 minutes at 55° C. The plates were closed on the bottom with black sealing membranes, and liquid scintillation cocktail (35 μL, Betaplate Scint, PerkinElmer) was added to each well. After sealing the top of the plate, an additional incubation step of 90 minutes at room temperature followed before measuring the plate. The amount of membrane-bound [^35S]GTPgS was measured using a 96-well plate reader (Microbeta®, PerkinElmer). Nonspecific binding was measured in the presence of unlabeled 10 μM of GTPgS (Millipore) and without GABA. Basal binding was measured in the absence of 1 μM GABA, and maximal binding was measured in the presence of GABA using 1 mM GABA concentrations.
Data analysis. The concentration-response curves of compounds of the present disclosure in the presence of EC25 of GABA-B receptor agonist were generated using the GraphPad Prism® program (GraphPad Software, San Diego, Calif.). Data was normalized using basal binding as 0% and maximal binding as 100%. The curves were fitted by nonlinear regression allowing determination of EC50 values from sigmoidal dose-response curves. Each curve was performed using triplicate sample per date point and 10 concentrations.

GABA-B receptor, sequence (Q9Z0U4 17-960): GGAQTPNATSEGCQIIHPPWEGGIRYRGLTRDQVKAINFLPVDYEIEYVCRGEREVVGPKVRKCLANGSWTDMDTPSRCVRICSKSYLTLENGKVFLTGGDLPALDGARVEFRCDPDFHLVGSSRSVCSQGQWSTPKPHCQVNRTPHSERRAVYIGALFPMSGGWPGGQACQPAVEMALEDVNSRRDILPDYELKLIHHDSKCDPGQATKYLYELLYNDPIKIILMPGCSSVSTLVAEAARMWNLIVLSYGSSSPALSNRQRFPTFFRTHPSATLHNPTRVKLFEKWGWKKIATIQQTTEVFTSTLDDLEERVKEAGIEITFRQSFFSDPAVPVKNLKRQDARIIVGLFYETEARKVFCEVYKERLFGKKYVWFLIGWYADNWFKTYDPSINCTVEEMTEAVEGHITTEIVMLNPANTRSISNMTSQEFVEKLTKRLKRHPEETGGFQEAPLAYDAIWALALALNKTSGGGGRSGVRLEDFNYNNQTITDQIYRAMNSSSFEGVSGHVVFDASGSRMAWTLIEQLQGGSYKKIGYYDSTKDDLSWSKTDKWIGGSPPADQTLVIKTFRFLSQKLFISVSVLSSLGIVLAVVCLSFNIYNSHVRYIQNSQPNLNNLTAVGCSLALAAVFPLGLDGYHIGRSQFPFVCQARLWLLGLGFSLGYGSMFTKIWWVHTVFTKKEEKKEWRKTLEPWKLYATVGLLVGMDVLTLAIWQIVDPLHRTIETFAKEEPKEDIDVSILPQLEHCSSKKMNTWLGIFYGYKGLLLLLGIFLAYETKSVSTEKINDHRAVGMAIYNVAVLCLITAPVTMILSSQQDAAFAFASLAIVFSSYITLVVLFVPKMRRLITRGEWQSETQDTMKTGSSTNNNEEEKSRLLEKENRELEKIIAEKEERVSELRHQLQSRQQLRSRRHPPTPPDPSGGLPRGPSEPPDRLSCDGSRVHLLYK
GABA-B receptor, sequence (O88871 41-940): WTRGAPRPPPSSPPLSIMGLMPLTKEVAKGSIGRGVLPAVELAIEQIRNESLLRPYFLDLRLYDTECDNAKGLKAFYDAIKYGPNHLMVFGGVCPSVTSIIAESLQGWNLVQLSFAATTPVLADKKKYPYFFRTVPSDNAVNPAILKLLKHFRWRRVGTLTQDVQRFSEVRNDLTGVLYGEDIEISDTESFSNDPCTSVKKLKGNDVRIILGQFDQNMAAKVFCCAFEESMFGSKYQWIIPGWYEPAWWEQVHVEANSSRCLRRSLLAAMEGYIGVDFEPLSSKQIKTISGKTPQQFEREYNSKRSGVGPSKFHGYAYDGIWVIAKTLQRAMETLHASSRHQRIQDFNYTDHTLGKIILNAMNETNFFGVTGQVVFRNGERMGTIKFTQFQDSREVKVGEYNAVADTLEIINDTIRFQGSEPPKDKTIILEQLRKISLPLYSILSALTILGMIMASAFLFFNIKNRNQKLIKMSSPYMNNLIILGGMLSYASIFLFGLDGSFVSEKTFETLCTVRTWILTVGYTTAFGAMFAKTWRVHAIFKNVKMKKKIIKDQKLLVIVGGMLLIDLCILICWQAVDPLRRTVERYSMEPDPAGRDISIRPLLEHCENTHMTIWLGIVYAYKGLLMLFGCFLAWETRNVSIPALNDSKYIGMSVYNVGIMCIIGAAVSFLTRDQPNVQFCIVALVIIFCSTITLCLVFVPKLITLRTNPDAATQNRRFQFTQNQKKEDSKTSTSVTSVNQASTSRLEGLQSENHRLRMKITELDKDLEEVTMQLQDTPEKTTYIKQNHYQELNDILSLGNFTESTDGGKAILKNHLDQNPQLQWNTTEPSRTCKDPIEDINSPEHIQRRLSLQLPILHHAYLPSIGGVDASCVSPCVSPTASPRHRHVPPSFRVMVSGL

EC50 [nM]	Structure (SMILES)
1560	COc1ccc(-c2nn(Cc3ccc(C(F)(F)F)cc3)c(=O)c3c(C)noc23)c(OC)c1 [Example 127, 7-(2,4-dimethoxyphenyl)-3-methyl-5-[4-(trifluoromethyl)benzyl][1,2]oxazolo[4,5-d]pyridazin-4(5H)-one]
3330	CC(=O)Nc1cccc(-c2nn(Cc3ccc(C(F)(F)F)cc3)c(=O)c3c(C)noc23)c1 [Example 57, N-(3-{3-methyl-4-oxo-5-[4-(trifluoromethyl)benzyl]-4,5-dihydro[1,2]oxazolo[4,5-d]pyridazin-7-yl}phenyl)acetamide]
222	Cc1ccc(O)cc1-c1nn(C(C)c2ccc(Cl)cc2)c(=O)c2c(C)noc12 (stereo not drawn) [Example 16, 5-[1-(4-chlorophenyl)ethyl]-7-(5-hydroxy-2-methylphenyl)-3-methyl[1,2]oxazolo[4,5-d]pyridazin-4(5H)-one]
3630	CC(=O)Nc1c(F)ccc(-c2nn([C@H](C)c3ccc(C(F)(F)F)cc3)c(=O)c3c(C)noc23)c1C [Example 112, N-[6-fluoro-2-methyl-3-(3-methyl-4-oxo-5-{(1R)-1-[4-(trifluoromethyl)-phenyl]ethyl}-4,5-dihydro[1,2]oxazolo[4,5-d]pyridazin-7-yl)phenyl]acetamide]
847	Cc1noc2c(-c3cccc(C(N)=O)c3)nn(C(C)c3ccc(Cl)cc3)c(=O)c12 (stereo not drawn) [Example 106, 3-{5-[1-(4-chlorophenyl)ethyl]-3-methyl-4-oxo-4,5-dihydro[1,2]oxazolo[4,5-d]pyridazin-7-yl}benzamide]
229	COc1ccc(OC)c(-c2nn(C(C)c3ccc(Cl)cc3)c(=O)c3c(C)noc23)c1 (stereo not drawn) [Example 21, 5-[1-(4-chlorophenyl)ethyl]-7-(2,5-dimethoxyphenyl)-3-methyl[1,2]oxazolo[4,5-d]pyridazin-4(5H)-one]
2930	COc1ccccc1-c1nn(Cc2ccc(C(F)(F)F)cc2)c(=O)c2c(C)noc12 [Example 118, 7-(2-methoxyphenyl)-3-methyl-5-[4-(trifluoromethyl)benzyl][1,2]oxazolo[4,5-d]pyridazin-4(5H)-one]
389	CC(=O)Nc1ccc(C)c(-c2nn(C(C)c3ccc(Cl)cc3)c(=O)c3c(C)noc23)c1 (stereo not drawn) [Example 18, N-(3-{5-[1-(4-chlorophenyl)ethyl]-3-methyl-4-oxo-4,5-dihydro[1,2]oxazolo[4,5-d]pyridazin-7-yl}-4-methylphenyl)acetamide]
1850	Cc1noc2c(-c3cc(F)ccc3N)nn(C(C)c3ccc(Cl)cc3)c(=O)c12 (stereo not drawn) [Example 97, 7-(2-amino-5-fluorophenyl)-5-[1-(4-chlorophenyl)ethyl]-3-methyl[1,2]oxazolo[4,5-d]pyridazin-4(5H)-one]
> 10000	COc1ccc(NC(C)=O)cc1-c1nn([C@H](C)c2ccc(Cl)cc2)c(=O)c2c(C3CC3)noc12 [Example 3, N-(3-{5-[(1R)-1-(4-chlorophenyl)ethyl]-3-cyclopropyl-4-oxo-4,5-dihydro[1,2]oxazolo[4,5-d]pyridazin-7-yl}-4-methoxyphenyl)acetamide]
3090	Cc1noc2c(-c3ccc(F)cc3)nn(Cc3ccc(Cl)cc3)c(=O)c12 [Example 83, 5-(4-chlorobenzyl)-7-(4-fluorophenyl)-3-methyl[1,2]oxazolo[4,5-d]pyridazin-4(5H)-one]
643	COc1ccc(C(=O)N(C)C)cc1-c1nn(C(C)c2ccc(Cl)cc2)c(=O)c2c(C)noc12 (stereo not drawn) [Example 38]
2110	CC(=O)Nc1cc(-c2nn(Cc3ccc(Cl)cc3)c(=O)c3c(C)noc23)ccc1F [Example 8]
578	COc1ccc(OC)c(-c2nn(Cc3ccc(Cl)cc3)c(=O)c3c(C4CC4)noc23)c1 [Example 47, 5-(4-chlorobenzyl)-3-cyclopropyl-7-(2,5-dimethoxyphenyl)[1,2]oxazolo[4,5-d]pyridazin-4(5H)-one]
1930	Cc1ccccc1-c1nn(Cc2ccc(Cl)cc2)c(=O)c2c(C)noc12 [Example 76, 5-(4-chlorobenzyl)-3-methyl-7-(2-methylphenyl)[1,2]oxazolo[4,5-d]pyridazin-4(5H)-one]
347	Cc1noc2c(-c3ccc4cc[nH]c4c3)nn(C(C)c3ccc(Cl)cc3)c(=O)c12 (stereo not drawn) [Example 12, 5-[1-(4-chlorophenyl)ethyl]-7-(1H-indol-6-yl)-3-methyl[1,2]oxazolo[4,5-d]pyridazin-4(5H)-one]
511	COc1ccc(C(F)(F)F)cc1-c1nn(C(C)c2ccc(Cl)cc2)c(=O)c2c(C)noc12 (stereo not drawn) [Example 79, 5-[1-(4-chlorophenyl)ethyl]-7-[2-methoxy-5-(trifluoromethyl)phenyl]-3-methyl[1,2]oxazolo[4,5-d]pyridazin-4(5H)-one]
2210	COCc1noc2c(-c3cc(OC)ccc3OC)nn(Cc3ccc(Cl)cc3)c(=O)c12 [Example 71, 5-(4-chlorobenzyl)-7-(2,5-dimethoxyphenyl)-3-(methoxymethyl)[1,2]oxazolo[4,5-d]pyridazin-4(5H)-one]
7700	CC(=O)Nc1cccc(-c2nn([C@@H](C)c3ccc(Cl)cc3)c(=O)c3c(C)noc23)c1 [Example 72, N-(3-{5-[(1S)-1-(4-chlorophenyl)ethyl]-3-methyl-4-oxo-4,5-dihydro[1,2]oxazolo[4,5-d]pyridazin-7-yl}phenyl)acetamide]
> 10000	CNC(=O)c1ccc(OC)c(-c2nn([C@H](C)c3ccc(Cl)cc3)c(=O)c3c(C)noc23)c1 [Example 111, 3-{5-[(1R)-1-(4-chlorophenyl)ethyl]-3-methyl-4-oxo-4,5-dihydro[1,2]oxazolo[4,5-d]pyridazin-7-yl}-4-methoxy-N-methylbenzamide]
39	COc1ccc(C(=O)O)cc1-c1nn(C(C)c2ccc(Cl)cc2)c(=O)c2c(C)noc12 (stereo not drawn) [Example 73]
> 10000	Cc1noc2c(-c3cc(C(F)(F)F)ccc3N)nn(C(C)c3ccc(Cl)cc3)c(=O)c12 (stereo not drawn) [Example 11, 7-[2-amino-5-(trifluoromethyl)phenyl]-5-[1-(4-chlorophenyl)ethyl]-3-methyl[1,2]oxazolo[4,5-d]pyridazin-4(5H)-one]
2690	Cc1noc2c(-c3cncc(F)c3)nn(C(C)c3ccc(Cl)cc3)c(=O)c12 (stereo not drawn) [Example 22, 5-[1-(4-chlorophenyl)ethyl]-7-(5-fluoropyridin-3-yl)-3-methyl[1,2]oxazolo[4,5-d]pyridazin-4(5H)-one]
> 10000	COc1ccc(OC)c(-c2nn([C@H](C)c3ccc(Cl)cc3)c(=O)c3c(C4CC4)noc23)c1 [Example 128, 5-[(1R)-1-(4-chlorophenyl)ethyl]-3-cyclopropyl-7-(2,5-dimethoxyphenyl)-[1,2]oxazolo[4,5-d]pyridazin-4(5H)-one]
1810	Cc1nn([C@@H](C)c2ccc(Cl)cc2)c(=O)c2c(C)noc12 (single isomer, unassigned) [Example 31]
1470	CC(=O)Nc1ccc(C)c(-c2nn(Cc3ccc(C(F)(F)F)cc3)c(=O)c3c(C)noc23)c1 [Example 107, N-(4-methyl-3-{3-methyl-4-oxo-5-[4-(trifluoromethyl)benzyl]-4,5-dihydro[1,2]oxazolo[4,5-d]pyridazin-7-yl}phenyl)acetamide]
2760	Cc1noc2c(-c3cccnc3N)nn(C(C)c3ccc(Cl)cc3)c(=O)c12 (stereo not drawn) [Example 86, 7-(2-aminopyridin-3-yl)-5-[1-(4-chlorophenyl)ethyl]-3-methyl[1,2]oxazolo[4,5-d]pyridazin-4(5H)-one]
